Patent US6011039A, “Aminopyridine derivatives” (Banyu Pharmaceutical Co., Ltd., priority 1996, dated 2000)

Columns and labels:
NPY Y1 receptor = target: T1, NPY Y1 receptor (Homo sapiens, UniProt P25929); assay: NPY Binding Inhibition Test ([125I] peptide YY binding to SK-N-MC cell membranes); conditions: SK-N-MC membrane, 25° C., 2 hours, pH 7.4, 20,000 cpm [125I] peptide YY; read-out: IC50 (50% inhibition concentration against specific [125I] peptide YY binding)
T1 construct: A membrane sample prepared from SK-N-MC cells derived from human neuroblastoma; endogenous in cells; host or cells: SK-N-MC
T1 sequence (P25929 1-384): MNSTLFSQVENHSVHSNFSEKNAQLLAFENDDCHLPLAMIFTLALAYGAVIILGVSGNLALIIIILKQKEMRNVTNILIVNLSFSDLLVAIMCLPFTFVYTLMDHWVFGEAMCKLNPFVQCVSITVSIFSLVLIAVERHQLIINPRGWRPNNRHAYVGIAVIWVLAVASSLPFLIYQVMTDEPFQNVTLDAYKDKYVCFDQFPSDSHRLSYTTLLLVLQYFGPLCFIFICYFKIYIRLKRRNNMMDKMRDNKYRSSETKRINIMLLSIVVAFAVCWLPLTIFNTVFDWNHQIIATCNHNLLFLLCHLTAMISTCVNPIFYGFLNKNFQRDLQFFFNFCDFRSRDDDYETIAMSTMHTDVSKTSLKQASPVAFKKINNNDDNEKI
Method: Pharmacological Test Example 1
(NPY Binding Inhibition Test)
A membrane sample prepared from SK-N-MC cells derived from human neuroblastoma in which the expression of NPY Y1 receptor was reported, was incubated at 25° C. for 2 hours together with a test compound and 20,000 cpm of [^125 I] peptide YY (manufactured by Amersham Company) in an assay buffer (25 mM HEPES buffer solution containing 10 mM of magnesium chloride, 1 mM of phenylmethylsulfonyl fluoride, 0.1% of bacitracin and 0.5% of BSA, pH 7.4), and then subjected to filtration by a glass filter GF/C. After washing with a 50 mM Tris buffer solution containing 0.3% of BSA at pH 7.4, the radiation activity on the glass filter was measured by a gamma counter. The nonspecific binding was measured in the presence of 1 μM of peptide YY and the 50% inhibition concentration (IC50) of the test compound against specific [^125 I] peptide YY binding was obtained [Endocrinology, vol. 131, 2090 (1992)].

[1] = test system: NPY-induced feeding behavior; assay: Antagonistic Test Against NPY-Induced Feeding Behavior In Vivo; design: species or system male SD rat; conditions: 200 μg/head, into lateral ventricle, simultaneously with NPY (5 μg/head/10 μl); food intake for two hours; Duncan's test, p<0.05 significant
Method: Pharmacological Test Example 2
(Antagonistic Test Against NPY-Induced Feeding Behavior In Vivo)
Under pentobarbital anesthesia (intraperitoneal single administration of 200 mg/kg), a chronic guide cannula (outer diameter: 0.8 mm, inner diameter: 0.5 mm, length: 10 mm) was inserted stereotaxically in the right lateral cerebral ventricle of a male SD rat (7 to 8 weeks old, 200 to 300 g) and fixed by a dental resin. The forward end position of the guide cannula was at 0.9 mm posterior to bregma, 1.2 mm to the right of the midline and 1.5 mm ventral to the brain surface, so that when an inner needle was inserted, the forward end extended beyond the forward end of the guide cannula by about 2 mm and reached the lateral ventricle. After a recovery period of about one week, NPY (5 μg/head/10 μl) was administered into the lateral ventricle. The test compound was simultaneously administered as mixed with NPY, and food intake for two hours after the administration was measured. With respect to the obtained result, a multiple comparative determination was carried out by Duncan's test, whereby p<0.05 was taken as significant.

IC50 (NPY Y1 receptor): 0.33 nM
SMILES: C=CCOC(=O)Nc1cccc(CNc2cc(N3CCOCC3)cc(CSc3nnc(CC)s3)n2)c1 [Example 4, 6-(5-ethyl-1,3,4-thiadiazol-2-ylthiomethyl)-4-morpholino-2-[3-(2-propenyloxycarbonylamino)benzylamino]pyridine]
increase in food intake induced by NPY [1]: significantly suppressed the increase in food intake induced by NPY
